Results reported in PubChem BioAssay (NCI).
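Test compounds were applied to cells in 96-well plates for 48 hours at 5 doses. TGI: concentration producing complete growth inhibition.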

Columns and labels:
Assay in all cases: NCI-60 cell line screen, 48 h
[1] = test system: NCI-H226 lung
[2] = test system: A498 renal
[3] = test system: HL-60(TB) leukemia
[4] = test system: CAKI-1 renal
[5] = test system: HCT-116 colon
[6] = test system: HT29 colon
[7] = test system: DU-145 prostate
[8] = test system: SF-295 CNS
[9] = test system: OVCAR-8 ovarian
[10] = test system: TK-10 renal

SMILES | TGI [1] | TGI [2] | TGI [3] | TGI [4] | TGI [5] | TGI [6] | TGI [7] | TGI [8] | TGI [9] | TGI [10]
CC(C)(C)N(Cc1ccc2c(c1)OCO2)C(=O)/C=C\Sc1ccccc1 | > 100 µM | > 100 µM | > 100 µM | > 100 µM | > 100 µM | > 100 µM | > 100 µM | > 100 µM | > 100 µM | > 100 µM
O=C(CCc1ccccc1)ON1C(=S)C(c2ccccc2)(c2ccccc2)N=C1Sc1ccccc1 | > 100 µM | > 100 µM | > 100 µM | > 100 µM | > 100 µM | > 100 µM | > 100 µM | > 100 µM | > 100 µM | > 100 µM
O=C1C(CN2CCOCC2)CCCC1CN1CCOCC1 (stereo not given) | 40.3 µM | 42.3 µM | 1.78 µM | 1.57 µM | 2.83 µM | 4.16 µM | 31.1 µM | 50.5 µM | 9.31 µM | 8.72 µM
CCN(CC)c1ccc(/C=C/C=C2C(=O)NC(=S)NC2=O)cc1 | 99 µM | > 100 µM | 11 µM | > 100 µM | > 100 µM | > 100 µM | > 100 µM | > 100 µM | 42.4 µM | > 100 µM
CN(C)c1cccc(NC2=NCCO2)c1 | > 100 µM | > 100 µM | 50.5 µM | > 100 µM | > 100 µM | 47.4 µM | > 100 µM | > 100 µM | > 100 µM | > 100 µM
C[Si](C)(C)C1=C([Si](C)(C)C)C(Cl)(Cl)C1=O | 8.86 µM | 29.8 µM | 1.53 µM | 7.14 µM | 7.02 µM | 13.7 µM | 23.3 µM | 22.3 µM | 9.78 µM | 5.27 µM
Cc1ccc2c(c1)C(=O)C(C1OC(=O)c3ccccc31)C2 (stereo not given) | > 100 µM | > 100 µM | > 100 µM | > 100 µM | > 100 µM | > 100 µM | > 100 µM | > 100 µM | > 100 µM | > 100 µM
O=[N+]([O-])c1ccc(O)c(/C=N/NC(=S)N2CCCCC2)c1 | 5.94 µM | > 44.2 µM | > 42.1 µM | 34.4 µM | 40.3 µM | 15 µM | > 52.5 µM | 28.7 µM | 4.66 µM | 44 µM
O=C1Nc2ccccc2/C1=c1\[nH]c(=O)/c(=C\c2ccc(OCc3ccccc3)cn2)[nH]c1=O | > 100 µM | 77.9 µM | > 100 µM | > 100 µM | > 100 µM | > 100 µM | > 100 µM | 50.5 µM | > 100 µM | 50.1 µM
COC(=O)c1ccc(Nc2nc3nc[nH]c3c(=O)[nH]2)cc1 | > 100 µM | > 100 µM | > 100 µM | > 100 µM | > 100 µM | > 100 µM | > 100 µM | > 100 µM | > 100 µM | > 100 µM
CCOc1cc(NC(C)=O)ccc1C(=O)NN1C(=O)CSC1c1ccccc1 (stereo not given) | > 100 µM | > 100 µM | > 100 µM | > 100 µM | > 100 µM | > 100 µM | > 100 µM | > 100 µM | > 100 µM | > 100 µM
c1cnc(N2CCN(Cc3c[nH]c4ccccc34)CC2)nc1 | > 100 µM | > 100 µM | > 100 µM | > 100 µM | > 100 µM | > 100 µM | 94.2 µM | > 100 µM | > 100 µM | > 100 µM
O=C1c2cn[nH]c2C(c2ccccc2)N1c1ccccc1 (stereo not given) | > 10 µM | > 10 µM | > 10 µM | > 10 µM | > 10 µM | > 10 µM | > 10 µM | > 10 µM | > 10 µM | > 10 µM
C/C1=C\C=C(\C(C)C)CC/C(C(=O)O)=C\CC/C(C)=C/CC1 | 43.3 µM | 34.1 µM | 56.8 µM | 88.3 µM | 29.8 µM | 99 µM | > 100 µM | 47.9 µM | > 100 µM | > 100 µM
NC(Cc1ccc(S(=O)(=O)O)cc1)C(=O)NC(Cc1ccc(S(=O)(=O)O)cc1)C(=O)O (stereo not given) | > 100 µM | > 100 µM | > 100 µM | > 100 µM | > 100 µM | > 100 µM | > 100 µM | > 100 µM | > 100 µM | > 100 µM
CC(=N\N)/C(C)=N/N=C(C)/C(C)=N/N=C(C)/C(C)=N/N | > 100 µM | > 100 µM | > 100 µM | > 100 µM | > 100 µM | > 100 µM | > 100 µM | > 100 µM | > 100 µM | > 100 µM
CC(=O)N1CCn2c1nc1cc(Cl)ccc12 | > 100 µM | > 100 µM | > 100 µM | > 100 µM | > 100 µM | > 100 µM | > 100 µM | > 100 µM | > 100 µM | > 100 µM
COc1ccccc1C[C@@H]1OC2(C=CC(=O)C=C2)O[C@H]1Cc1ccccc1OC | 16.8 µM | 49.9 µM | 29.8 µM | 29.7 µM | 2.32 µM | 16.7 µM | > 50 µM | 22.9 µM | 3.46 µM | 27.4 µM
CCc1nc2ccc(NCCN(C)C)c3c(=O)c4ccccc4n1c23 | 4.34 µM | 11 µM | 8.68 µM | 7.89 µM | 6.26 µM | 5.08 µM | 3.4 µM | 5.04 µM | 4.76 µM | 12.2 µM
COc1ccc(/C=N/n2cnc3[nH]c(C)c(Cc4ccccc4)c3c2=N)cc1 | > 100 µM | > 100 µM | > 100 µM | > 100 µM | > 100 µM | > 100 µM | > 100 µM | > 100 µM | > 100 µM | > 100 µM
COc1cc(C2c3cc4c(cc3OC(N3CCNCC3)C2C)OCO4)cc(OC)c1OC (stereo not given) | 8.78 µM | 52.1 µM | 0.929 µM | 4.29 µM | 9.23 µM | 7.54 µM | > 28.5 µM | 0.822 µM | > 37.8 µM | > 100 µM
CCCC(CCN)(CCN)[N+](=O)[O-] | > 100 µM | > 100 µM | > 100 µM | > 100 µM | > 100 µM | > 100 µM | > 100 µM | > 100 µM | > 100 µM | > 100 µM
CC1CC(=O)N(N(C)C)C(C#N)(C#N)C1(C#N)C#N (stereo not given) | 67 µM | 34.1 µM | 4.83 µM | 5.23 µM | 51.7 µM | 38 µM | 32.5 µM | > 77.4 µM | 45.2 µM | 30.3 µM
